From patent US9034918B2, “Composition including at least one trans-cinnamaldehyde and the use thereof in the treatment of bacterial infections, specifically in the treatment of nosocomial infections” (SEPTEOS, priority 2009, dated 2015) come the findings set out here.

What all share (assay): Antibiogram by diffusion technique (CA-SFM 2008)
Holding throughout (assay type): cell-based

Experiment [1] deals with Enterococcus faecium (9001). Particulars: strain 9001. The source says:
(§1) Three clinical categories were selected for interpretation of the in vitro sensitivity tests: sensitive (S), resistant (R) and intermediate (I). • The strains categorized S are those for which the probability of therapeutic success is high in the case of treatment by systemic route with the dosing schedule recommended in the summary of product characteristics (SPC) prepared by the French Health Products Safety Agency (AFSSAPS). • The strains categorized R are those for which there is a high probability of therapeutic failure regardless of treatment type and antibiotic dose. • The strains categorized I are those for which therapeutic success cannot be predicted. These strains form a heterogeneous group for which the results obtained in vitro are not predictive of therapeutic success. […] The intermediate category is also a buffer zone which takes into account technical and biological uncertainties.
(§2) The sensitivity of strains to antibiotics was determined by a diffusion technique according to the 2008 recommendations by the Antibiogram Committee of the French Microbiology Society (CA-SFM).
(§3) In terms of critical concentrations and diameters, strains are categorized as follows: • sensitive (S): strains for which the MIC of the antibiotic tested is less than or equal to the lower critical concentration c, which is equivalent to a diameter greater than or equal to the critical diameter D; • resistant (R): strains for which the MIC of the antibiotic tested are greater than the upper critical concentration C, corresponding to a diameter less than the critical diameter d; • intermediate sensitivity (I): strains for which the MIC of the antibiotic tested and the corresponding diameter are between the two critical concentrations and the two critical diameters.
(§4) The tests were carried out on Mueller-Hinton agar. An inoculum adjusted to 0.5 on the McFarland scale is then diluted to 1/100. Petri dishes are inoculated by swabbing. The dishes are read after 24 hours of incubation at 37° C.
(§5) The raw results are then interpreted according to the interpretative reading rules of the CA-SFM.

In experiment [2] the test system is golden staph (S. aureus) strain 8147.
Description: as §1, §2, §3, §4, §5

Experiment [3] deals with golden staph (S. aureus) strain 8239.
Description: as §1, §2, §3, §4, §5

Experiment [4] concerns golden staph (S. aureus) strain 8240.
Description: as §1, §2, §3, §4, §5

The subject of a further experiment is Enterococcus strain 8152. Details: Diameter: unit not given here.
Description: as §1, §2, §3, §4, §5

In the next experiment the test system is Enterococcus strain 8153. Details: Diameter: unit not given here.
Description: as §1, §2, §3, §4, §5

Experiment [5] has as its system Pseudomonas aeruginosa strain 8132.
Description: as §1, §2, §3, §4, §5

In a further experiment the test system is E. coli strain 8156.
Description: as §1, §2, §3, §4, §5

In experiment [6] the test system is Pseudomonas aeruginosa strain 8134.
Description: as §1, §2, §3, §4, §5

In a further experiment the test system is E. coli strain 8155.
Description: as §1, §2, §3, §4, §5

Experiment [7] concerns Pseudomonas aeruginosa strain 8128.
Description: as §1, §2, §3, §4, §5

Experiment [8] has as its system Pseudomonas aeruginosa strain 8129.
Description: as §1, §2, §3, §4, §5

A further experiment relates to E. coli strain 8154.
Description: as §1, §2, §3, §4, §5

The next experiment concerns E. coli strain 8157.
Description: as §1, §2, §3, §4, §5

The next experiment relates to E. coli ATCC 25922. Set-up: Diameter (D): unit not given here. The text has this: Three clinical categories were selected for interpretation of the in vitro sensitivity tests: sensitive (S), resistant (R) and intermediate (I). • The strains categorized S are those for which the probability of therapeutic success is high in the case of treatment by systemic route with the dosing schedule recommended in the summary of product characteristics (SPC) prepared by the French Health Products Safety Agency ([…]). • The strains categorized R are those for which there is a high probability of therapeutic failure regardless of treatment type and antibiotic dose. • The strains categorized I are those for which therapeutic success cannot be predicted. These strains form a heterogeneous group for which the results obtained in vitro are not predictive of therapeutic success. […] The intermediate category is also a buffer zone which takes into account technical and biological uncertainties. The sensitivity of strains to antibiotics was determined by a diffusion technique according to the 2008 recommendations by the Antibiogram Committee of the French Microbiology Society (CA-SFM). In terms of critical concentrations and diameters, strains are categorized as follows: • sensitive (S): strains for which the MIC of the antibiotic tested is less than or equal to the lower critical concentration c, which is equivalent to a diameter greater than or equal to the critical diameter D; • resistant (R): strains for which the MIC of the antibiotic tested are greater than the upper critical concentration C, corresponding to a diameter less than the critical diameter d; • intermediate sensitivity (I): strains for which the MIC of the antibiotic tested and the corresponding diameter are between the two critical concentrations and the two critical diameters. The tests were carried out on Mueller-Hinton agar. An inoculum adjusted to 0.5 on the McFarland scale is then diluted to 1/100. Petri dishes are inoculated by swabbing. The dishes are read after 24 hours of incubation at 37° C. The raw results are then interpreted according to the interpretative reading rules of the CA-SFM. Two examples: all strains of methicillin-resistant Staphylococcus are resistant to all beta-lactams, and the same is true for gentamicin-resistant strains; golden staph is necessarily resistant to kanamycin (and amikacin) and tobramycin. The quality of the diffusion method is controlled using E. coli strain ATCC 25922.

Experiment [9] relates to strain 9010, Acinetobacter baumannii, with VEB-1 ESBL.
Description: as §1, §2, §3, §4, §5

For experiment [10], the system named is strain 9007, Pseudomonas aeruginosa, with VIM-2 carbapenemase.
Description: as §1, §2, §3, §4, §5

Turning to `CC1(C)S[C@@H]2[C@H](NC(=O)[C@H](N)c3ccccc3)C(=O)N2[C@H]1C(=O)O` [Ampi], in [1], the Category result is “R”.
Regarding `O=C(N[C@H](CO)[C@H](O)c1ccc([N+](=O)[O-])cc1)C(Cl)Cl` [Chloram], in [1], the Category result was “S”.
As to `CCC[C@@H]1C[C@@H](C(=O)N[C@@H]([C@H]2O[C@H](SC)[C@H](O)[C@@H](O)[C@H]2O)[C@H](C)Cl)N(C)C1` [Clindamycin], the Cat. result in experiment [2], in [3] and in experiment [4] was “S” throughout. Besides, the values for the D in experiment [2], in [3] and in experiment [4] were 29, 31 and 30, respectively. Further, the Category entry (in the experiment on Enterococcus strain 8152; in the experiment with Enterococcus strain 8153; in experiment [1]) was “R” each time. In addition, the Diameter in the experiment with Enterococcus strain 8152 and in the experiment with Enterococcus strain 8153 was 0 throughout.
As to `CC[C@H]1OC(=O)[C@H](C)[C@@H](O[C@H]2C[C@@](C)(OC)[C@@H](O)[C@H](C)O2)[C@H](C)[C@@H](O[C@@H]2O[C@H](C)C[C@H](N(C)C)[C@H]2O)[C@](C)(O)C[C@@H](C)C(=O)[C@H](C)[C@@H](O)[C@]1(C)O` [Erythro], in [1], the Category entry is “R”.
Turning to `NC[C@H]1O[C@H](O[C@H]2[C@H](O)[C@@H](O[C@H]3O[C@H](CO)[C@@H](O)[C@H](N)[C@H]3O)[C@H](N)C[C@@H]2N)[C@H](O)[C@@H](O)[C@@H]1O` [Kanamycin], the Cat. entry in experiment [2] is “S”; in experiment [5] it was “R”; in the experiment on E. coli strain 8156, “S”; in [6], “R”; in the experiment with E. coli strain 8155 it was “S”; in experiment [7], “R”. Further, the Cat. entry in experiment [3] is reported as “S”; in [8] it was “R”; in experiment [4], “R”; in the experiment on E. coli strain 8154, “S”; in the experiment on E. coli strain 8157 it was “S”. Moreover, the D in experiment [2] turned out to be 22; in [5], 0; in the experiment on E. coli strain 8156, 27; in experiment [6] it was 14; in the experiment on E. coli strain 8155, 23; in experiment [7], 9. Also, the D in experiment [3] is 26; in [8], 10; in experiment [4], 12; in the experiment on E. coli strain 8154, 24; with E. coli strain 8157 it was 24. Moreover, the Category entry (in the experiment on Enterococcus strain 8152; with Enterococcus strain 8153; in experiment [9]; in experiment [1]; in experiment [10]) was “R” in each case. For the same molecule, the Diameter came to 10 with Enterococcus strain 8152 and 14 in the experiment on Enterococcus strain 8153. Also, the “Category (Cat.)” value with E. coli ATCC 25922 is “S”. Besides, the “Diameter (D)” value with E. coli ATCC 25922 turned out to be 22.
In the case of `C[C@H]1COc2c(N3CCN(C)CC3)c(F)cc3c(=O)c(C(=O)O)cn1c23` [Levofloxacin], the Cat. result is reported as “R” in [2]; “R” in experiment [5]; “S” in the experiment with E. coli strain 8156; “R” in [6]; “S” in the experiment with E. coli strain 8155; “S” in experiment [7]. For the same molecule, the Cat. result in experiment [3] is listed as “R”; in [8] it was “S”; in experiment [4], “R”; in the experiment on E. coli strain 8154, “S”; in the experiment on E. coli strain 8157 it was “R”. Further, the D came out at 10 in [2]; 0 in [5]; 31 in the experiment with E. coli strain 8156; 0 in experiment [6]; 31 in the experiment with E. coli strain 8155; 23 in experiment [7]. Further, the D in experiment [3] was 10; in experiment [8], 26; in experiment [4] it was 0; in the experiment with E. coli strain 8154, 36; with E. coli strain 8157, 11. Moreover, the Category entry with Enterococcus strain 8152 was “S”; in the experiment on Enterococcus strain 8153, “S”; in experiment [9], “R”; in experiment [1], “R”; in [10], “S”. For the same molecule, the Diameter with Enterococcus strain 8152 was determined as 29; in the experiment with Enterococcus strain 8153, 26. Further, the “Category (Cat.)” value in the experiment with E. coli ATCC 25922 is recorded as “S”. The “Diameter (D)” value with E. coli ATCC 25922 amounted to 31.
As to `CC(=O)NC[C@H]1CN(c2ccc(N3CCOCC3)c(F)c2)C(=O)O1` [Linezolid], the Category result in experiment [1] was “S”.
On the same count and under the same terms, next, `COc1c(N2C[C@@H]3CCCN[C@@H]3C2)c(F)cc2c(=O)c(C(=O)O)cn(C3CC3)c12` [Moxiflo]: “R”; `CN[C@@H]1[C@H](O[C@H]2[C@H](O[C@H]3[C@H](O)[C@@H](O)[C@H](N=C(N)N)[C@@H](O)[C@@H]3N=C(N)N)O[C@@H](C)[C@]2(O)C=O)O[C@@H](CO)[C@H](O)[C@H]1O` [Strepto HC]: “R”.
On the same count and under the same terms, next, `CN(C)[C@@H]1C(O)=C(C(N)=O)C(=O)[C@@]2(O)C(O)=C3C(=O)c4c(O)cccc4[C@@](C)(O)[C@H]3C[C@@H]12` [Tetra]: “S”; `CN[C@H](CC(C)C)C(=O)N[C@H]1C(=O)N[C@@H](CC(N)=O)C(=O)N[C@H]2C(=O)N[C@H]3C(=O)N[C@H](C(=O)N[C@H](C(=O)O)c4cc(O)cc(O)c4-c4cc3ccc4O)[C@H](O)c3ccc(c(Cl)c3)Oc3cc2cc(c3O[C@@H]2O[C@H](CO)[C@@H](O)[C@H](O)[C@H]2O[C@H]2C[C@](C)(N)[C@H](O)[C@H](C)O2)Oc2ccc(cc2Cl)[C@H]1O` [Vanco]: “R”.
